Values joined by “and” are separate entries in the source; they are usually repeats but may differ in a detail not shown here. Equal values may be shown once.
How the values were obtained:
[1] = molecular target: T1, Retinoic acid receptor RXR-alpha (Homo sapiens, UniProt P19793); experiment: In vitro antagonist activity against RXR alpha in CV-1 cells; assay type: functional, cell-based, Cercopithecidae
T1 sequence (P19793 whole entry): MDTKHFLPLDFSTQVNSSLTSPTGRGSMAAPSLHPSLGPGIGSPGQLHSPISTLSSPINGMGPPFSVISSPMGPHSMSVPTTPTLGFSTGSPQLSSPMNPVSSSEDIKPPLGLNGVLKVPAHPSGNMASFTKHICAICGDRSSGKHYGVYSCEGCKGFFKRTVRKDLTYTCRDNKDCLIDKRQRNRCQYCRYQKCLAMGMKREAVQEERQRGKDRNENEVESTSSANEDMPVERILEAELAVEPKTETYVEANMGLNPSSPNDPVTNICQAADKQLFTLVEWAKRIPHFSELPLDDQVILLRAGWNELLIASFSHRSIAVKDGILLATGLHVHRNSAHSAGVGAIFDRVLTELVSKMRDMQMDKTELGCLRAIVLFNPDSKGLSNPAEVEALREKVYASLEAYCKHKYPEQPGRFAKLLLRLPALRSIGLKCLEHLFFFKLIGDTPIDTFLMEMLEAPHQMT

[2] = molecular target: T2, Peroxisome proliferator-activated receptor gamma (Homo sapiens, UniProt P37231)
T2 sequence (P37231 whole entry): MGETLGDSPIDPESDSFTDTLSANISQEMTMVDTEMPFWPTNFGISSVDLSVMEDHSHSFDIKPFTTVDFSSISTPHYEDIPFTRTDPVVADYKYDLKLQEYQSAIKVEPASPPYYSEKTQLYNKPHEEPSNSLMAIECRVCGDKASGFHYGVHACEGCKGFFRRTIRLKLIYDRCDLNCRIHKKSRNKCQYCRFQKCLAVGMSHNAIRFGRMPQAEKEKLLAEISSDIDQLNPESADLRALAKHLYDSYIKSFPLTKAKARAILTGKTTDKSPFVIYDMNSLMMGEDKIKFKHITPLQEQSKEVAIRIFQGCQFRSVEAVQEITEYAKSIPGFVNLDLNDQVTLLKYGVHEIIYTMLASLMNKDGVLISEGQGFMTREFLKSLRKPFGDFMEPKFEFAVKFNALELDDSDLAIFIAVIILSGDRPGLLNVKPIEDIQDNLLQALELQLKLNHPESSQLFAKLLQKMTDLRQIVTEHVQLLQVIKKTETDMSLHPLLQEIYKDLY
Description: In vitro agonist efficacy against PPAR gamma along with 100 nM BRL-49653

[3] = molecular target: T3, Retinoic acid receptor gamma (Homo sapiens, UniProt P13631); experiment: Displacement of [3H]ATRA from RAR gamma receptor in CV-1 cells; […]; assay type: cell-based, Cercopithecidae
T3 sequence (P13631 whole entry): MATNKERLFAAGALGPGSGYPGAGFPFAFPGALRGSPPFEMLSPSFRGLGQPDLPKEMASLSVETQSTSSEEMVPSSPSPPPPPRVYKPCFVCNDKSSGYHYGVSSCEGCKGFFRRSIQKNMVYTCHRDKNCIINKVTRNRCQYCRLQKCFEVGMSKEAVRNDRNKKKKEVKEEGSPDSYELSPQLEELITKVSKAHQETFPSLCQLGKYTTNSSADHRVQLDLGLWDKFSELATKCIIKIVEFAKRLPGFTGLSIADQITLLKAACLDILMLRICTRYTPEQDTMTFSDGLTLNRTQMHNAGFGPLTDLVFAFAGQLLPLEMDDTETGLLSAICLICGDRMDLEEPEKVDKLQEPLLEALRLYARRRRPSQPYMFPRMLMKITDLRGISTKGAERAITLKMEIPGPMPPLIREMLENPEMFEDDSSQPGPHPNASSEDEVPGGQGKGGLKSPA

[4] = molecular target: T4, Retinoic acid receptor alpha (Homo sapiens) (UniProt P10276); experiment: Agonist synergy against RAR alpha was tested along with 3 nM TTNPB; assay type: functional; conditions: Cercopithecidae
T4 sequence (whole entry): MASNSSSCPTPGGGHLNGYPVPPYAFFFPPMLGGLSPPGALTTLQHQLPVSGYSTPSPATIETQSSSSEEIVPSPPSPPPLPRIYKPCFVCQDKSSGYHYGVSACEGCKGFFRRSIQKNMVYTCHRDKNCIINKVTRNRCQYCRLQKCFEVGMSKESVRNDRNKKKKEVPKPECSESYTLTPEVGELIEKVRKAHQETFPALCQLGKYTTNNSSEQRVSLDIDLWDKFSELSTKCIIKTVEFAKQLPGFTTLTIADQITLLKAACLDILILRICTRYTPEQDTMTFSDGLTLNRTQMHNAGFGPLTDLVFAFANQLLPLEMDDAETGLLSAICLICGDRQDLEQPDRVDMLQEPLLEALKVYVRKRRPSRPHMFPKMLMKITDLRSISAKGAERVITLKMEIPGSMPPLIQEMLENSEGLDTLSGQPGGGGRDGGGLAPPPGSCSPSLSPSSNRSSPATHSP

[5] = molecular target: T2, Peroxisome proliferator-activated receptor gamma; remark: listed apart in the source
Description: In vitro agonistic activity against PPAR gamma along with 100 nM BRL-49653

[6] = molecular target: T1, Retinoic acid receptor RXR-alpha; experiment: biochemical
Description: Binding affinity against RXR alpha receptor using [3H]9-cis-RA as radioligand in CV-1 cells

[7] = molecular target: T5, Retinoic acid receptor beta (Homo sapiens, UniProt P10826); experiment: Binding affinity against RAR beta receptor using [3H]ATRA as radioligand in CV-1 cells; assay type: cell-based, Cercopithecidae
T5 sequence (P10826 whole entry): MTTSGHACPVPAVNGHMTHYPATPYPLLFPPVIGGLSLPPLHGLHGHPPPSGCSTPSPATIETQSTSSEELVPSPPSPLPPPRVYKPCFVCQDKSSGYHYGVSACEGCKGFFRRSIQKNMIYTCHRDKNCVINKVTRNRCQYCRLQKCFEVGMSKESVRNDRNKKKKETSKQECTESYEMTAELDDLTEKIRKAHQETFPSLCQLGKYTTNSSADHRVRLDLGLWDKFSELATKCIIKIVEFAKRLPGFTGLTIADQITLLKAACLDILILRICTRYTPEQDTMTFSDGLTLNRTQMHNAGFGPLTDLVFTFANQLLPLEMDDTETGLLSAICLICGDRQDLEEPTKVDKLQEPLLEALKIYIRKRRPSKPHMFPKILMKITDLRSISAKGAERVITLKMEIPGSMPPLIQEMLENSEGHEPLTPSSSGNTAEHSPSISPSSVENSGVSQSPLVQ

[8] = molecular target: T6, Retinoic acid receptor RXR-gamma (Homo sapiens, UniProt P48443); experiment: Binding affinity against RXR gamma receptor using [3H]9-cis-RA as radioligand in CV-1 cells; assay type: cell-based, Cercopithecidae
T6 sequence (P48443 whole entry): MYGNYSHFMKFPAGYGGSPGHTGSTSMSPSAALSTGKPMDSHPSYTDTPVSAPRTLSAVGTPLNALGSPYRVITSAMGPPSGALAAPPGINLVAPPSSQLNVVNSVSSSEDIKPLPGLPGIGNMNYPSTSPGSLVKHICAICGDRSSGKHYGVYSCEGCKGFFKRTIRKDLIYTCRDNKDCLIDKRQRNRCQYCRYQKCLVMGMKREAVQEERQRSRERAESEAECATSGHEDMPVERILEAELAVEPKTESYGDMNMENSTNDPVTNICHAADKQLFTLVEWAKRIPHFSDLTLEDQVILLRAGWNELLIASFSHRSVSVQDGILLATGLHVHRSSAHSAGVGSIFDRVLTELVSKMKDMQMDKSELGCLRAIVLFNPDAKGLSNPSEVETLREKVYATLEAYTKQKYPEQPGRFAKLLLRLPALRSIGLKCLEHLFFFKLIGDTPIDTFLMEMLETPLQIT

[9] = molecular target: T7, Retinoic acid receptor RXR-beta (Homo sapiens, UniProt P28702); experiment: Displacement of [3H]9-cis-RA from RXR beta receptor in CV-1 cells; assay type: cell-based, Cercopithecidae
T7 sequence (P28702 whole entry): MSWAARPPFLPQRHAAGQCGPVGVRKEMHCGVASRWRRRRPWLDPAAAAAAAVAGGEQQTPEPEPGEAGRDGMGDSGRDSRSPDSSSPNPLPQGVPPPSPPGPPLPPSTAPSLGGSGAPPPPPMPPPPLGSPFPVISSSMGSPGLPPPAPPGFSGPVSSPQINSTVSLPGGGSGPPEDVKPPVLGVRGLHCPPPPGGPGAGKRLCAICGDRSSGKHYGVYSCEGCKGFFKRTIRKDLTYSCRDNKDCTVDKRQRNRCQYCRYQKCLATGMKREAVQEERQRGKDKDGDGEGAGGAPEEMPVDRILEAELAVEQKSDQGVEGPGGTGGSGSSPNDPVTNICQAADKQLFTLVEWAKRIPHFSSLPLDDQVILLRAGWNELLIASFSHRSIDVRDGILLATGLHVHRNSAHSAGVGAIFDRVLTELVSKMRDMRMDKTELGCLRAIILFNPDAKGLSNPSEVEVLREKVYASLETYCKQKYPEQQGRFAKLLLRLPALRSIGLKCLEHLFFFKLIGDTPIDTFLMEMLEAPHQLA

[10] = molecular target: T3, Retinoic acid receptor gamma; experiment: Displacement of [3H]ATRA from RAR gamma receptor expressed in CV-1 cells; assay type: cell-based, Cercopithecidae
[11] = molecular target: T8, Retinoic acid receptor alpha (Homo sapiens, UniProt P10276); experiment: Binding affinity against RAR alpha receptor using [3H]ATRA as radioligand in CV-1 cells; assay type: cell-based, Cercopithecidae
T8 sequence (P10276 whole entry): T4 sequence (whole entry)

[12] = molecular target: T3, Retinoic acid receptor gamma; experiment: Binding affinity against RAR gamma receptor using [3H]ATRA as radioligand in CV-1 cells; assay type: cell-based, Cercopithecidae
[13] = Cmax value in IRC mice; assay type: ADME, organism-based; conditions: mouse, in vivo
[14] = Tmax value in IRC mice; assay type: ADME, organism-based; conditions: mouse, in vivo
[15] = Area under curve at 0-8 hr in IRC mice after peroral administration; assay type: ADME, organism-based; set-up: time < 8 hr, route oral; conditions: mouse, in vivo, po

Compound: C/C(=C/C=C/C(C)=C/C(=O)O)c1cc(-c2ccco2)cc(C(C)C)c1OCC(F)F
- IC50 [1]: 3.6 nM
- EC50 [2]: 37 nM
- Ki [3]: > 10000 nM
- Synergy [4]: 1.2 nM
- EC50 [5]: 7.4 nM
- Ki [6]: 3 nM

Compound: CCCOc1c(\C(C)=C/C=C/C(C)=C/C(=O)O)cc(C(C)C)cc1C(F)(F)C(F)(F)F
- Ki [7]: > 10000 nM
- IC50 [1]: 10.7 nM
- EC50 [2]: 29 nM
- Synergy [4]: 9.4 nM
- Ki [8]: 23.6 nM
- EC50 [5]: 15.1 nM
- Ki [9]: 9.9 nM
- Ki [6]: 85.8 nM
- Ki [10]: > 10000 nM
- Ki [11]: > 10000 nM

Compound: CC(/C=C/C(F)=C(/C)c1cc(C(C)(C)C)cc(C(C)(C)C)c1OCC(F)F)=C\C(=O)O
- Ki [7]: 5680 nM
- Ki [12]: > 10000 nM
- IC50 [1]: 6.8 nM
- Cmax [13]: 3690 ng/mL and 8.41 µM
- EC50 [2]: 63 nM
- Synergy [4]: 1.8 nM
- Ki [8]: 13.2 nM
- Tmax [14]: 3 h
- EC50 [5]: 6.4 nM
- Ki [9]: 11.5 nM
- Ki [11]: 8300 nM
- AUC(0-t) at 8 h [15]: 17700 ng·h/mL
